Patent US10590078B2, “Sodium channel blockers” (Daewoong Pharmaceutical Co., Ltd., priority 2015, dated 2020)

What follows are compounds tested against human sodium ion channel 1.7 (hNav1.7) (Homo sapiens, UniProt Q15858) (assay: Blocking effect against sodium ion channel Nav1.7, IonFlux16 auto patch clamp in hNav1.7 HEK293 cells). Settings: hNav1.7 HEK293 cells; inhibition of peak current after 50 seconds treatment; eight concentrations; read-out: IC50.
Chain of human sodium ion channel 1.7 (hNav1.7) (Q15858 whole entry): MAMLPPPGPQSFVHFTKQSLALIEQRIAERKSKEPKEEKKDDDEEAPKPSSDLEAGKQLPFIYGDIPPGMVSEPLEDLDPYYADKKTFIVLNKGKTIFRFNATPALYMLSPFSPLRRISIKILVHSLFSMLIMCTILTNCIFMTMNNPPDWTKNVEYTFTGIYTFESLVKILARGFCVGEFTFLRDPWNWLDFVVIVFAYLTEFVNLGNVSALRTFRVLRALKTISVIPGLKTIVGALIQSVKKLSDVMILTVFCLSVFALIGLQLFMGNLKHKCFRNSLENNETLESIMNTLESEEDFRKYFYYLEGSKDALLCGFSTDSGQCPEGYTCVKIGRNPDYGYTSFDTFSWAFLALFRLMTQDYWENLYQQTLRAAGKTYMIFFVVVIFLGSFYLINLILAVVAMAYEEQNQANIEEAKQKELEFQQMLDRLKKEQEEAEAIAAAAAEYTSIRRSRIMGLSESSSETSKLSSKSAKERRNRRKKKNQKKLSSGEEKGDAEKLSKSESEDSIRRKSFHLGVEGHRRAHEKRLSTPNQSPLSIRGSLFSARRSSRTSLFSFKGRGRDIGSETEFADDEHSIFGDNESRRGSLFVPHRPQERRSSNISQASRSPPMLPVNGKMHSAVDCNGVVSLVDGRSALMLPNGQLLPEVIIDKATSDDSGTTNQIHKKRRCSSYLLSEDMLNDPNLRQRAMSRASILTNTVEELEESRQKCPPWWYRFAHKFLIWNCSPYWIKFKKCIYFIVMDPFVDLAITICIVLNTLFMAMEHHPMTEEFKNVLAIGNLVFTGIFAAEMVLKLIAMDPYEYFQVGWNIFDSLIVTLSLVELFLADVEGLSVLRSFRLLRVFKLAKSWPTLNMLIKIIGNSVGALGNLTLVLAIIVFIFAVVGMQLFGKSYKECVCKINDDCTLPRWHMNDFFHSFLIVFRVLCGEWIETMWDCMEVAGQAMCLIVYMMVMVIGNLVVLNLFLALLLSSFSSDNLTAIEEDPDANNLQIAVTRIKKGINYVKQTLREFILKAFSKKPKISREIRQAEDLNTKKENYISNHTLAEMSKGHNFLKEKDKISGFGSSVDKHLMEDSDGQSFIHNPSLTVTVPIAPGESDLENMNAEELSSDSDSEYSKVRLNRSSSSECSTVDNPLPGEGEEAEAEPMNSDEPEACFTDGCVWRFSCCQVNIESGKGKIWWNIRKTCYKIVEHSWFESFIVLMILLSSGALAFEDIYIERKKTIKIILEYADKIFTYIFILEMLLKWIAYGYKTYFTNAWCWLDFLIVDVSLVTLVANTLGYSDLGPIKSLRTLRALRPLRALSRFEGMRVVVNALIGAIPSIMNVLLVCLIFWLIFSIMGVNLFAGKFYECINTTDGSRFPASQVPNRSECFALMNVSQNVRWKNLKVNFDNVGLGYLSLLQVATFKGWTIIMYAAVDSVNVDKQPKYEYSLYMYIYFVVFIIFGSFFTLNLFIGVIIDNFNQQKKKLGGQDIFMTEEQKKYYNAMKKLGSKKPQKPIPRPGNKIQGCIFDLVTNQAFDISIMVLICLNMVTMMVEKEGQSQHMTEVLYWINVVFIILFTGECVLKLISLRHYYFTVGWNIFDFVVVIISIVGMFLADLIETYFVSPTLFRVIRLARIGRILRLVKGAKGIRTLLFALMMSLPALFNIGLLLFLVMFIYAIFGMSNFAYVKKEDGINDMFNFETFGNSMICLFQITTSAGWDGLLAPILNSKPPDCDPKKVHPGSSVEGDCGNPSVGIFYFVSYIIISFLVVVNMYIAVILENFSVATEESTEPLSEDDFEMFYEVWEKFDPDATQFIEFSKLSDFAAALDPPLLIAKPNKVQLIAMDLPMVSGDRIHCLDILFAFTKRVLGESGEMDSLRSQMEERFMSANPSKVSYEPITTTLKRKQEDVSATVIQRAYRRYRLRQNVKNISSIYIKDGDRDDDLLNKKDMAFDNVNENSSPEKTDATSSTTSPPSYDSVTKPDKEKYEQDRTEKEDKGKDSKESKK
Assay type: cell-based
With Cc1nn(-c2cc(F)c(C(=O)NS(C)(=O)=O)cc2Cl)c2ccc(Cl)cc12 [Example 1, 5-chloro-4-(5-chloro-3-methyl-1H-indazol-1-yl)-2-fluoro-N-(methylsulfonyl)benzamide] the IC50 was over 10 µM. Compound CS(=O)(=O)NC(=O)c1cc(Cl)c(-n2ncc3cc(Cl)ccc32)cc1F [Example 2, 5-chloro-4-(5-chloro-1H-indazol-1-yl)-2-fluoro-N-(methylsulfonyl)benzamide] has an IC50 of 5.39 µM. For CS(=O)(=O)NC(=O)c1cc(Cl)c(-n2nc(Cl)c3cc(Cl)cnc32)cc1F [Example 3, 5-chloro-4-(3,5-dichloro-1H-pyrazolo[3,4-b]pyridin-1-yl)-2-fluoro-N-(methylsulfonyl)benzamide], the IC50 was 1.13 µM. Compound CS(=O)(=O)NC(=O)c1ccc(-n2nc(Cl)c3cc(Cl)ccc32)cc1F [Example 4, 4-(3,5-dichloro-1H-indazol-1-yl)-2-fluoro-N-(methylsulfonyl)benzamide] has an IC50 of over 10 µM. Work on CS(=O)(=O)NC(=O)c1cc(Cl)c(-n2nc(N)c3cc(Cl)ccc32)cc1F [Example 5, 4-(3-amino-5-chloro-1H-indazol-1-yl)-5-chloro-2-fluoro-N-(methylsulfonyl)benzamide] yielded an IC50 of over 10 µM. Work on CC(=O)Nc1nn(-c2cc(F)c(C(=O)NS(C)(=O)=O)cc2Cl)c2ccc(Cl)cc12 [Example 6, 4-(3-acetamido-5-chloro-1H-indazol-1-yl)-5-chloro-2-fluoro-N-(methylsulfonyl)benzamide] yielded an IC50 of over 10 µM. CN(C)S(=O)(=O)NC(=O)c1cc(Cl)c(-n2nc(Cl)c3cc(Cl)ccc32)cc1F [Example 7, 5-chloro-4-(3,5-dichloro-1H-indazol-1-yl)-N—(N,N-dimethylsulfamoyl)-2-fluorobenzamide] was tested, and the IC50 was 0.227 µM. CS(=O)(=O)NC(=O)c1ccc(-n2nc(Cl)c3cc(Cl)ccc32)c(Cl)c1 [Example 8, 3-chloro-4-(3,5-dichloro-1H-indazol-1-yl)-N-(methylsulfonyl)benzamide] was tested, and the IC50 was 0.88 µM. In the case of CS(=O)(=O)NC(=O)c1cc(Cl)c(-n2nc(Cl)c3cc(Cl)ccc32)cc1F [Example 9, 5-chloro-4-(3,5-dichloro-1H-indazol-1-yl)-2-fluoro-N-(methylsulfonyl)benzamide], the IC50 is reported as 0.117 µM. For CS(=O)(=O)NC(=O)c1cc(Cl)c(-n2ncc3cc(Cl)ncc32)cc1F [Example 10, 5-chloro-4-(5-chloro-1H-pyrazolo[3,4-c]pyridin-1-yl)-2-fluoro-N-(methylsulfonyl)benzamide], the IC50 was over 10 µM. CS(=O)(=O)NC(=O)c1cc(Cl)c(-n2nc(Cl)c3cc(Cl)ncc32)cc1F [Example 11, 5-chloro-4-(3,5-dichloro-1H-pyrazolo[3,4-c]pyridin-1-yl)-2-fluoro-N-(methylsulfonyl)benzamide] gave an IC50 of over 10 µM. CS(=O)(=O)NC(=O)c1ccc(-n2nc(Cl)c3cc(O)ccc32)cc1 [Example 12, 4-(3-chloro-5-hydroxy-1H-indazol-1-yl)-N-(methylsulfonyl)benzamide] gave an IC50 of over 10 µM. Work on CS(=O)(=O)NC(=O)c1cc(Cl)c(-n2ncc3cc(N)ccc32)cc1F [Example 13, 4-(5-amino-1H-indazol-1-yl)-5-chloro-2-fluoro-N-(methylsulfonyl)benzamide] yielded an IC50 of over 10 µM. In the case of Cc1nn(-c2cc(F)c(C(=O)NS(C)(=O)=O)cc2Cl)c2ccc([N+](=O)[O-])cc12 [Example 14, 5-chloro-2-fluoro-4-(3-methyl-5-nitro-1H-indazol-1-yl)-N-(methylsulfonyl)benzamide], the IC50 is reported as 3 to 10 µM. In the case of CS(=O)(=O)NC(=O)c1cc(Cl)c(-n2ncc3c(Cl)c(F)ccc32)cc1F [Example 15, 5-chloro-4-(4-chloro-5-fluoro-1H-indazol-1-yl)-2-fluoro-N-(methylsulfonyl)benzamide], the IC50 is reported as 3.09 µM. Compound CS(=O)(=O)NC(=O)c1cc(Cl)c(-n2nc(Cl)c3cc(O)ccc32)cc1F [Example 16, 5-chloro-4-(3-chloro-5-hydroxy-1H-indazol-1-yl)-2-fluoro-N-(methylsulfonyl)benzamide] has an IC50 of over 10 µM. For CS(=O)(=O)NC(=O)c1cc(Cl)c(-n2nc(Cl)c3cc(F)ccc32)cc1F [Example 17, 5-chloro-4-(3-chloro-5-fluoro-1H-indazol-1-yl)-2-fluoro-N-(methylsulfonyl)benzamide], the IC50 was 0.476 µM. Work on CS(=O)(=O)NC(=O)c1cc(Cl)c(-n2nc(Cl)c3cc(C(F)(F)F)ccc32)cc1F [Example 18, 5-chloro-4-(3-chloro-5-(trifluoromethyl)-1H-indazol-1-yl)-2-fluoro-N-(methylsulfonyl)benzamide] yielded an IC50 of 0.587 µM. With CS(=O)(=O)NC(=O)c1cc(Cl)c(-n2nc(Br)c3cc(Cl)ccc32)cc1F [Example 19, 4-(3-bromo-5-chloro-1H-indazol-1-yl)-5-chloro-2-fluoro-N-(methylsulfonyl)benzamide] the IC50 was 0.216 µM. CS(=O)(=O)NC(=O)c1cc(Cl)c(-n2nc(Cl)c3cc(Br)ccc32)cc1F [Example 21, 4-(5-bromo-3-chloro-1H-indazol-1-yl)-5-chloro-2-fluoro-N-(methylsulfonyl)benzamide] showed an IC50 of 0.175 µM. CS(=O)(=O)NC(=O)c1cc(Cl)c(-n2nc(C#N)c3cc(Br)ccc32)cc1F [Example 22, 4-(5-bromo-3-cyano-1H-indazol-1-yl)-5-chloro-2-fluoro-N-(methylsulfonyl)benzamide] was tested, and the IC50 was 0.966 µM. For CS(=O)(=O)NC(=O)c1cc(Cl)c(-n2nc(Cl)c3cc([N+](=O)[O-])ccc32)cc1F [Example 23, 5-chloro-4-(3-chloro-5-nitro-1H-indazol-1-yl)-2-fluoro-N-(methylsulfonyl)benzamide], the IC50 was 0.365 µM. Compound CS(=O)(=O)NC(=O)c1cc(Cl)c(-n2nc(Cl)c3cc(C4CC4)ccc32)cc1F [Example 24, 5-chloro-4-(3-chloro-5-cyclopropyl-1H-indazol-1-yl)-2-fluoro-N-(methylsulfonyl)benzamide] has an IC50 of 0.28 µM. For CS(=O)(=O)NC(=O)c1cc(Cl)c(-n2nc(-c3ccccc3)c3cc(C4CC4)ccc32)cc1F [Example 26, 5-chloro-4-(5-cyclopropyl-3-phenyl-1H-indazol-1-yl)-2-fluoro-N-(methylsulfonyl)benzamide], the IC50 was 0.1 µM. CS(=O)(=O)NC(=O)c1cc(Cl)c(-n2nc(Cl)c3cc(Nc4ccccc4)ccc32)cc1F [Example 27, 5-chloro-4-(3-chloro-5-(phenylamino)-1H-indazol-1-yl)-2-fluoro-N-(methylsulfonyl)benzamide] was tested, and the IC50 was 7.71 µM. For CS(=O)(=O)NC(=O)c1cc(Cl)c(-n2nc(Cl)c3cc(OCc4ccccc4)ccc32)cc1F [Example 28, 4-(5-(benzyloxy)-3-chloro-1H-indazol-1-yl)-5-chloro-2-fluoro-N-(methylsulfonyl)benzamide], the IC50 was 0.049 µM. Work on CS(=O)(=O)NC(=O)c1cc(Cl)c(-n2ncc3c(Cl)c(OCc4ccccc4)ccc32)cc1F [Example 29, 4-(5-(benzyloxy)-4-chloro-1H-indazol-1-yl)-5-chloro-2-fluoro-N-(methylsulfonyl)benzamide] yielded an IC50 of 0.786 µM. For Cc1nn(-c2cc(F)c(C(=O)NS(C)(=O)=O)cc2Cl)c2ccc(OCc3ccccc3)cc12 [Example 30, 4-(5-(benzyloxy)-3-methyl-1H-indazol-1-yl)-5-chloro-2-fluoro-N-(methylsulfonyl)benzamide], the IC50 was 0.247 µM. Work on CS(=O)(=O)NC(=O)c1cc(Cl)c(-n2nc(Cl)c3c(Cl)c(OCc4ccc(F)cc4)ccc32)cc1F [Example 31, 5-chloro-4-(3,4-dichloro-5-((4-fluorobenzyl)oxy)-1H-indazol-1-yl)-2-fluoro-N-(methylsulfonyl)benzamide] yielded an IC50 of 1.51 µM.
